Assay results: patent publication EP0195841A1, “Quinolinecarboxylic acid derivatives and process for their preparation” (KYORIN PHARMACEUTICAL CO., LTD., priority 1985, dated 1986)
≈ marks a conversion by molar mass, not a printed value.

Legend:
Assay in all cases: Antibacterial spectra, MIC by standard method of Japan Society of Chemotherapy
Assay type in all cases: cell-based
[1] = tested on: Bacillus subtilis PCI 219; settings: PCI219, Gram +, 10^6 cells/ml, read-out: Minimum Inhibitory Concentration
[2] = tested on: Staphylococcus aureus 209 P; settings: Gram +, 10^6 cells/ml
[3] = tested on: S. aureus IID 670 (Terajima); settings: 10^6 cells/ml
S. epidermidis IID 866 = settings: 10^6 cells/ml
[4] = tested on: Streptococcus pyogenes IID 692; settings: 10^6 cells/ml
[5] = tested on: S. pyogenes IID 689 (S-8); settings: 10^6 cells/ml
S. faecalis IID 682 = settings: Enterococcus faecalis, IID682, Gram +, 10^6 cells/ml, read-out: Minimum Inhibitory Concentration
S. pneumoniae 2054 = settings: Gram +, 10^6 cells/ml
E. coli NIHJ JC-2 = settings: E. coli NIHJ JC-2, Gram −, 10^6 cells/ml
E. coli ATCC 10536 = settings: 10^6 cells/ml
[6] = tested on: Proteus vulgaris IFO 3167; settings: Proteus vulgaris IFO 3167, Gram −, 10^6 cells/ml
P. mirabilis IID 994 = settings: 10^6 cells/ml
P. morganii IID 602 = settings: Morganella morganii, IID602, Gram −, 10^6 cells/ml, read-out: Minimum Inhibitory Concentration
[7] = tested on: Klebsiella pneumoniae KY 6445; settings: 10^6 cells/ml
[8] = tested on: Enterobacter cloacae IID 977; settings: 10^6 cells/ml
[9] = tested on: Citrobacter freundii IID 976; settings: 10^6 cells/ml
[10] = tested on: Serratia marcescens IID 618; settings: 10^6 cells/ml
Shigella sonnei IID 969 = settings: 10^6 cells/ml
Experimental: Experiment 1. Antibacterial spectra
Antibacterial activity was determined with the standard method recommended by Japan Society of Chemotherapy.

[11] = tested on: Salmonella enteritidis IID 604; settings: Gram −, 10^6 cells/ml
[12] = tested on: Pseudomonas aeruginosa V-1; settings: 10^6 cells/ml
[13] = tested on: Pseudomonas aeruginosa IFO 12689; settings: 10^6 cells/ml
[14] = tested on: Yersinia enterocolitica IID 981; settings: 10^6 cells/ml
[15] = tested on: Acinetobacter anitratus IID 876; settings: 10^6 cells/ml
[16] = tested on: Alcaligenes faecalis 0104002; settings: Gram −, 10^6 cells/ml
[17] = tested on: Bacteroides fragilis GM 7000; settings: 10^6 cells/ml
[18] = tested on: Bacteroides fragilis 0558; settings: Gram −, 10^6 cells/ml
[19] = tested on: Bacteroides fragilis 25285; settings: Gram −, 10^6 cells/ml
[20] = read-out: Minimum Inhibitory Concentration

With `O=C(O)c1cn(C2CC2)c2c(Cl)c(N3CCNCC3)c(F)cc2c1=O` [Example 25, 8-Chloro-l-cyclopropyl-6-fluoro-l,4-dihydro-4-oxo-7-(1-piperazinyl)quinoline-3-carboxylic acid] the MIC [1] was 0.0125 µg/mL (≈ 0.0342 µM), the “ratio of activity per that of Ciprofloxacin (bracketed number)” value [2] was 8 and the MIC [2, 20] was 0.05 µg/mL (≈ 0.137 µM). For the same molecule, the “ratio of activity per that of Ciprofloxacin (bracketed number)” value ([3]; Gram +) was 4, the MIC ([3]; Staphylococcus aureus, IID670, Gram +, read-out: Minimum Inhibitory Concentration) was 0.1 µg/mL (≈ 0.273 µM) and the “ratio of activity per that of Ciprofloxacin (bracketed number)” value (S. epidermidis IID 866; Gram +) was 8. The MIC (S. epidermidis IID 866; Staphylococcus epidermidis, IID866, Gram +, read-out: Minimum Inhibitory Concentration) was 0.05 µg/mL (≈ 0.137 µM), the “ratio of activity per that of Ciprofloxacin (bracketed number)” value ([4]; Gram +) was 2 and the MIC ([4]; IID692, Gram +, read-out: Minimum Inhibitory Concentration) was 0.39 µg/mL (≈ 1.07 µM). The “ratio of activity per that of Ciprofloxacin (bracketed number)” value ([5]; Gram +) was 2, the MIC ([5]; Streptococcus pyogenes, IID689, Gram +, read-out: Minimum Inhibitory Concentration) was 0.2 µg/mL (≈ 0.547 µM) and the MIC (S. faecalis IID 682) was 0.2 µg/mL (≈ 0.547 µM). The “ratio of activity per that of Ciprofloxacin (bracketed number)” value (S. pneumoniae 2054) was 4, the MIC (S. pneumoniae 2054; Streptococcus pneumoniae, read-out: Minimum Inhibitory Concentration) was 0.39 µg/mL (≈ 1.07 µM) and the “ratio of activity per that of Ciprofloxacin (bracketed number)” value (E. coli NIHJ JC-2) was 1. The MIC (E. coli NIHJ JC-2; Escherichia coli, NIHJJC2, read-out: Minimum Inhibitory Concentration) was ≤ 0.006 µg/mL, the MIC (E. coli ATCC 10536; Escherichia coli, ATCC10536, Gram −, read-out: Minimum Inhibitory Concentration) was ≤ 0.006 µg/mL and the “ratio of activity per that of Ciprofloxacin (bracketed number)” value (E. coli ATCC 10536; Gram −) was 2. The MIC ([6]; IFO3167, read-out: Minimum Inhibitory Concentration) was ≤ 0.006 µg/mL, the “ratio of activity per that of Ciprofloxacin (bracketed number)” value [6] was 1 and the “ratio of activity per that of Ciprofloxacin (bracketed number)” value (P. mirabilis IID 994; Gram −) was 1. The MIC (P. mirabilis IID 994; Proteus mirabilis, IID994, Gram −, read-out: Minimum Inhibitory Concentration) was 0.0125 µg/mL (≈ 0.0342 µM), the MIC (P. morganii IID 602) was 0.0125 µg/mL (≈ 0.0342 µM) and the “ratio of activity per that of Ciprofloxacin (bracketed number)” value ([7]; Gram −) was 1. The MIC ([7]; KY6445, Gram −, read-out: Minimum Inhibitory Concentration) was 0.0125 µg/mL (≈ 0.0342 µM), the “ratio of activity per that of Ciprofloxacin (bracketed number)” value ([8]; Gram −) was 2 and the MIC ([8]; IID977, Gram −, read-out: Minimum Inhibitory Concentration) was 0.025 µg/mL (≈ 0.0683 µM). The “ratio of activity per that of Ciprofloxacin (bracketed number)” value ([9]; Gram −) was 0.5, the MIC ([9]; IID976, Gram −, read-out: Minimum Inhibitory Concentration) was 0.0125 µg/mL (≈ 0.0342 µM) and the “ratio of activity per that of Ciprofloxacin (bracketed number)” value ([10]; Gram −) was 16. The MIC ([10]; IID618, Gram −, read-out: Minimum Inhibitory Concentration) was 0.025 µg/mL (≈ 0.0683 µM), the “ratio of activity per that of Ciprofloxacin (bracketed number)” value (Shigella sonnei IID 969; Gram −) was 1 and the MIC (Shigella sonnei IID 969; IID969, Gram −, read-out: Minimum Inhibitory Concentration) was ≤ 0.006 µg/mL. The “ratio of activity per that of Ciprofloxacin (bracketed number)” value [11] was 2, the MIC ([11]; Salmonella enterica, read-out: Minimum Inhibitory Concentration) was 0.0125 µg/mL (≈ 0.0342 µM) and the “ratio of activity per that of Ciprofloxacin (bracketed number)” value ([12]; Gram −) was 4. The MIC ([12]; V1, Gram −, read-out: Minimum Inhibitory Concentration) was 0.05 µg/mL (≈ 0.137 µM), the “ratio of activity per that of Ciprofloxacin (bracketed number)” value ([13]; Gram −) was 1 and the MIC ([13]; IFO12689, Gram −, read-out: Minimum Inhibitory Concentration) was 0.39 µg/mL (≈ 1.07 µM). For the same molecule, the “ratio of activity per that of Ciprofloxacin (bracketed number)” value ([14]; Gram −) was 2, the MIC ([14]; IID981, Gram −, read-out: Minimum Inhibitory Concentration) was 0.025 µg/mL (≈ 0.0683 µM) and the MIC ([15]; Acinetobacter calcoaceticus, IID876, Gram −, read-out: Minimum Inhibitory Concentration) was 0.05 µg/mL (≈ 0.137 µM). The “ratio of activity per that of Ciprofloxacin (bracketed number)” value ([15]; Gram −) was 0.5, the “ratio of activity per that of Ciprofloxacin (bracketed number)” value [16] was 2 and the MIC [16, 20] was 0.02 µg/mL (≈ 0.0547 µM). For the same molecule, the MIC ([17]; GM7000, Gram −, read-out: Minimum Inhibitory Concentration) was 0.39 µg/mL (≈ 1.07 µM), the “ratio of activity per that of Ciprofloxacin (bracketed number)” value ([17]; Gram −) was 8 and the “ratio of activity per that of Ciprofloxacin (bracketed number)” value [18] was 16. For the same molecule, the MIC [18, 20] was 0.2 µg/mL (≈ 0.547 µM), the “ratio of activity per that of Ciprofloxacin (bracketed number)” value [19] was 16 and the MIC [19, 20] was 0.2 µg/mL (≈ 0.547 µM).
